Structures can show the parent of a compound that is named as a salt.

The assay concerns the target T1, Human thrombin (Homo sapiens, UniProt P00734).
T1 construct: purchased Haematologic Technologies Inc
Kind of assay: Thrombin protease activity inhibition, chromogenic substrate S-2238. The format is biochemical. The settings on record: 3 nM thrombin, 125 μM S-2238, 10 min pre-incubation, RT. Here is the method:
The thrombin activity reported herein (e.g., Table A) was obtained as follows. […] Thrombin was assayed in buffer containing 0.05 M Tris (pH 7.4), 0.015 M NaCl and 0.01% PEG-8000. The final concentration of enzyme used was 3 nM thrombin. […] All assays were performed in 96-well microtiter plates at room temperature (RT). […] Inhibitor IC50 values were determined by adding test compound as ten point, three-fold serial dilutions in buffer solution, as known in the art. The plate was read at 10 minutes after substrate addition. The IC50 was calculated by plotting the percent (%) inhibition against compound concentration and fitting the data to a constrained four parameter sigmoidal curve, as known in the art.
On to `O=C(c1cccc2c1OCCO2)n1nc(C2CNC2)cc1NCc1ccc(Cl)s1` [Entry 126, 3-(azetidin-3-yl)-N-[(5-chlorothiophen-2-yl)methyl]-1-(2,3-dihydro-1,4-benzodioxine-5-carbonyl)-1H-pyrazol-5-amine; trifluoroacetic acid], for which the IC50 (usually the point on the concentration scale where inhibition reaches its midpoint) lay within 1000 to 10000 nM.
As for `COc1ccccc1C(=O)n1nc(C2CNC2)cc1NCc1ccc(Cl)s1` [Entry 127, 3-(azetidin-3-yl)-N-[(5-chlorothiophen-2-yl)methyl]-1-(2-methoxybenzoyl)-1H-pyrazol-5-amine hydrochloride], the IC50 was in the range of 10000 to 100000 nM.
In turn, `O=C(c1ccoc1)n1nc(C2CNC2)cc1NCc1ccc(Cl)s1` [Entry 128, 3-(azetidin-3-yl)-N-[(5-chlorothiophen-2-yl)methyl]-1-(furan-3-carbonyl)-1H-pyrazol-5-amine; trifluoroacetic acid] registered an IC50 of 1000 to 10000 nM.
With `O=C(c1ccsc1)n1nc(C2CNC2)cc1NCc1ccc(Cl)s1` [Entry 129, 3-(azetidin-3-yl)-N-[(5-chlorothiophen-2-yl)methyl]-1-(thiophene-3-carbonyl)-1H-pyrazol-5-amine; trifluoroacetic acid], the IC50 was in the range of 1000 to 10000 nM.
Under `O=S(=O)(c1ccccc1)N1CCC(c2cc(NCc3ccc(Cl)s3)[nH]n2)CC1` [Entry 130, 3-[1-(benzenesulfonyl)piperidin-4-yl]-N-[(5-chlorothiophen-2-yl)methyl]-1H-pyrazol-5-amine] stands 1000 to 10000 nM; under `Clc1ccc(CNc2cc(C3CC4CCC(C3)N4)n[nH]2)s1` (centres unmarked) [Entry 131, 3-8-azabicyclo[3.2.1]octan-3-yl-N-[(5-chlorothiophen-2-yl)methyl]-1H-pyrazol-5-amine], greater than 100000 nM.
For `CN(C)S(=O)(=O)N1CCC(c2cc(NCc3ccc(Cl)s3)n(C(=O)C(C)(C)C)n2)CC1` [Entry 133, 4-(5-[(5-chlorothiophen-2-yl)methyl]amino-1-(2,2-dimethylpropanoyl)-1H-pyrazol-3-yl)-N,N-dimethylpiperidine-1-sulfonamide], the IC50 lay in the range of 100 to 1000 nM.
For `CN(C)C(=O)N1CCC(c2cc(NCc3ccc(Cl)s3)n(C(=O)C(C)(C)CO)n2)CC1` [Entry 134, 4-(5-[(5-chlorothiophen-2-yl)methyl]amino-1-(3-hydroxy-2,2-dimethylpropanoyl)-1H-pyrazol-3-yl)-N,N-dimethylpiperidine-1-carboxamide], the IC50 is less than 100 nM.
Turning to `CN(C)S(=O)(=O)N1CCC(c2cc(NCc3ccc(Cl)s3)n(C(=O)C(C)(C)CO)n2)CC1` [Entry 135, 4-(5-[(5-chlorothiophen-2-yl)methyl]amino-1-(3-hydroxy-2,2-dimethylpropanoyl)-1H-pyrazol-3-yl)-N,N-dimethylpiperidine-1-sulfonamide], the IC50 is less than 100 nM.
Consider `CN(C)C(=O)N1CCC(c2cc(NCc3ccc(Cl)s3)n(C(=O)N(C)C)n2)CC1` [Entry 136, 4-(5-[(5-chlorothiophen-2-yl)methyl]amino-1-(dimethylcarbamoyl)-1H-pyrazol-3-yl)-N,N-dimethylpiperidine-1-carboxamide], for which the IC50 is greater than 100000 nM.
Compound `CN(C)C(=O)N1CCC(c2cc(NCc3ccc(Cl)s3)[nH]n2)CC1` [Entry 137, 4-(5-[(5-chlorothiophen-2-yl)methyl]amino-1H-pyrazol-3-yl)-N,N-dimethylpiperidine-1-carboxamide] came in with an IC50 greater than 100000 nM.
As to `CN(C)S(=O)(=O)N1CCC(c2cc(NCc3ccc(Cl)s3)[nH]n2)CC1` [Entry 138, 4-(5-[(5-chlorothiophen-2-yl)methyl]amino-1H-pyrazol-3-yl)-N,N-dimethylpiperidine-1-sulfonamide], the IC50 is greater than 100000 nM.
Take `CC1(C(=O)n2nc(C3CCN(C(=O)N4CCOCC4)CC3)cc2NCc2ccc(Cl)s2)CCC(O)CC1` (centres unmarked) [Entry 139, 4-(5-[(5-chlorothiophen-2-yl)methyl]amino-3-[1-(morpholine-4-carbonyl)piperidin-4-yl]-1H-pyrazole-1-carbonyl)-4-methylcyclohexan-1-ol]: the IC50 was less than 100 nM.
Turning to `CC(C)(C)C(=O)n1nc(C2CCN(C(=O)N3CCOCC3)CC2)c(C#N)c1NCc1ccc(Cl)s1` [Entry 140, 5-[(5-chlorothiophen-2-yl)methyl]amino-1-(2,2-dimethylpropanoyl)-3-[1-(morpholine-4-carbonyl)piperidin-4-yl]-1H-pyrazole-4-carbonitrile], the IC50 was less than 100 nM.
`CN1CCC(C)(C(=O)n2nc(C3CCN(C(=O)N4CCOCC4)CC3)cc2NCc2ccc(Cl)s2)CC1` [Entry 142, N-[(5-chlorothiophen-2-yl)methyl]-1-(1,4-dimethylpiperidine-4-carbonyl)-3-[1-(morpholine-4-carbonyl)piperidin-4-yl]-1H-pyrazol-5-amine; formic acid] showed an IC50 of 100 to 1000 nM.
For `O=C(c1cccc2c1OCCO2)n1nc(C2CCNCC2)cc1NCc1ccc(Cl)s1` [Entry 143, N-[(5-chlorothiophen-2-yl)methyl]-1-(2,3-dihydro-1,4-benzodioxine-5-carbonyl)-3-(piperidin-4-yl)-1H-pyrazol-5-amine hydrochloride], the IC50 is 1000 to 10000 nM.
`COc1ccc(C(=O)n2nc(C3CCNCC3)cc2NCc2ccc(Cl)s2)c(OC)c1` [Entry 147, N-[(5-chlorothiophen-2-yl)methyl]-1-(2,4-dimethoxybenzoyl)-3-(piperidin-4-yl)-1H-pyrazol-5-amine]: the IC50 was in the range of 1000 to 10000 nM.
Compound `COc1ccc(C(=O)n2nc(C3CCCN3)cc2NCc2ccc(Cl)s2)c(OC)c1` (centres unmarked) [Entry 148, N-[(5-chlorothiophen-2-yl)methyl]-1-(2,4-dimethoxybenzoyl)-3-(pyrrolidin-2-yl)-1H-pyrazol-5-amine] gave an IC50 of less than 100 nM.
Under `CC1CCCC(C)C1C(=O)n1nc(C2CCNCC2)cc1NCc1ccc(Cl)s1` (centres unmarked) [Entry 151, N-[(5-chlorothiophen-2-yl)methyl]-1-(2,6-dimethylcyclohexanecarbonyl)-3-(piperidin-4-yl)-1H-pyrazol-5-amine hydrochloride] stands 1000 to 10000 nM.
Consider `COc1ccccc1C(=O)n1nc(C2(C)CCCN2)cc1NCc1ccc(Cl)s1` (centres unmarked) [Entry 152, N-[(5-chlorothiophen-2-yl)methyl]-1-(2-methoxybenzoyl)-3-(2-methylpyrrolidin-2-yl)-1H-pyrazol-5-amine; formic acid], for which the IC50 lay in the range of 100 to 1000 nM.
Consider `COc1ccccc1C(=O)n1nc(C2(C)CCCNC2)cc1NCc1ccc(Cl)s1` (centres unmarked) [Entry 153, N-[(5-chlorothiophen-2-yl)methyl]-1-(2-methoxybenzoyl)-3-(3-methylpiperidin-3-yl)-1H-pyrazol-5-amine], for which the IC50 lay within 1000 to 10000 nM.
In turn, `COc1ccccc1C(=O)n1nc(C2(C)CCNCC2)cc1NCc1ccc(Cl)s1` [Entry 154, N-[(5-chlorothiophen-2-yl)methyl]-1-(2-methoxybenzoyl)-3-(4-methylpiperidin-4-yl)-1H-pyrazol-5-amine] had an IC50 of 1000 to 10000 nM.
With `COc1ccccc1C(=O)n1nc(C2CCCO2)cc1NCc1ccc(Cl)s1` (centres unmarked) [Entry 156, N-[(5-chlorothiophen-2-yl)methyl]-1-(2-methoxybenzoyl)-3-(oxolan-2-yl)-1H-pyrazol-5-amine], the IC50 was less than 100 nM.
As for `COc1ccccc1C(=O)n1nc(C2CCCNC2)cc1NCc1ccc(Cl)s1` (centres unmarked) [Entry 157, N-[(5-chlorothiophen-2-yl)methyl]-1-(2-methoxybenzoyl)-3-(piperidin-3-yl)-1H-pyrazol-5-amine], the IC50 was 100 to 1000 nM.
The compound `COc1ccccc1C(=O)n1nc(C2CCCN2)cc1NCc1ccc(Cl)s1` (centres unmarked) [Entry 159, N-[(5-chlorothiophen-2-yl)methyl]-1-(2-methoxybenzoyl)-3-(pyrrolidin-2-yl)-1H-pyrazol-5-amine] gave an IC50 of 100 to 1000 nM.
Under `COc1ccccc1C(=O)n1nc(C2CCN(CC(F)(F)F)CC2)cc1NCc1ccc(Cl)s1` [Entry 160, N-[(5-chlorothiophen-2-yl)methyl]-1-(2-methoxybenzoyl)-3-[1-(2,2,2-trifluoroethyl)piperidin-4-yl]-1H-pyrazol-5-amine] stands 1000 to 10000 nM.
`CC1(C(=O)n2nc(C3(C)CCCNC3)cc2NCc2ccc(Cl)s2)CCOCC1` (centres unmarked) [Entry 162, N-[(5-chlorothiophen-2-yl)methyl]-1-(4-methyloxane-4-carbonyl)-3-(3-methylpiperidin-3-yl)-1H-pyrazol-5-amine] yielded an IC50 of 1000 to 10000 nM.
The same measure for `CC1(C(=O)n2nc(C3CCCNC3)cc2NCc2ccc(Cl)s2)CCOCC1` (centres unmarked) [Entry 164, N-[(5-chlorothiophen-2-yl)methyl]-1-(4-methyloxane-4-carbonyl)-3-(piperidin-3-yl)-1H-pyrazol-5-amine]: 100 to 1000 nM; for `O=C(c1ccoc1)n1nc(C2CCCN2)cc1NCc1ccc(Cl)s1` (centres unmarked) [Entry 167, N-[(5-chlorothiophen-2-yl)methyl]-1-(furan-3-carbonyl)-3-(pyrrolidin-2-yl)-1H-pyrazol-5-amine]: less than 100 nM; for `O=C(N1CCOCC1)N1CCC(c2cc(NCc3ccc(Cl)s3)n(C(=O)N3CCOCC3)n2)CC1` [Entry 168, N-[(5-chlorothiophen-2-yl)methyl]-1-(morpholine-4-carbonyl)-3-[1-(morpholine-4-carbonyl)piperidin-4-yl]-1H-pyrazol-5-amine]: 1000 to 10000 nM.
In the case of `O=C(C1CCCCC1)n1nc(C2CCNCC2)cc1NCc1ccc(Cl)s1` [Entry 169, N-[(5-chlorothiophen-2-yl)methyl]-1-cyclohexanecarbonyl-3-(piperidin-4-yl)-1H-pyrazol-5-amine hydrochloride], the IC50 is greater than 100000 nM.
On to `O=C(C1CCCC1)n1nc(C2CCNCC2)cc1NCc1ccc(Cl)s1` [Entry 170, N-[(5-chlorothiophen-2-yl)methyl]-1-cyclopentanecarbonyl-3-(piperidin-4-yl)-1H-pyrazol-5-amine hydrochloride], for which the IC50 is greater than 100000 nM.

(Values after patent US10532995B2, “Substituted pyrazole compounds as serine protease inhibitors” (VERSEON CORPORATION, priority 2015, dated 2020).)
